From ChEMBL document CHEMBL1156284, “Tetrahydroindolizinone NK1 antagonists” (Bioorg Med Chem Lett, 2010) come the findings set out here.

Bounds are passed on as bounds.

Series [1] has as its system Gerbillinae. The experiment in a line: Toxicity in iv dosed gerbil assessed as inhibition of GR-73632-induced foot tapping at 1 mg/kg, iv after 1 hrs. In kind it is organism-based. Also noted: dose 1 mg/kg, route intravenous. The conditions noted are these: for inhibition at 1 mg/kg: Gerbillinae.
The target in series [2] is T1, Substance-P receptor (Homo sapiens, UniProt P25103). In words: Displacement of [125I]substance P from human NK1 receptor expressed in CHO cells. In kind it is cell-based. A general note: Loss of bound radioactivity is the signal in a displacement assay; it reports binding, not function.
Series [3] concerns the target T1, Substance-P receptor. In words: Displacement of [125I]substance P from human NK1 receptor expressed in CHO cells in presence of 50% human serum. Type of series: cell-based.
Series [4] in a line: Oral bioavailability in dog. In kind it is ADME, organism-based, Canis lupus familiaris. The conditions noted are these: in vivo.
Series [5] in a line: Volume of distribution in rat. The conditions noted are these: in vivo. In kind it is ADME, organism-based.
Series [6] has as its target T1, Substance-P receptor. In words: Antagonist activity at human NK1 receptor assessed as substance P-stimulated inositol phosphate generation at 100 nM. In kind it is functional.
Series [7] concerns Gerbillinae. In words: Toxicity in iv dosed gerbil assessed as inhibition of GR-73632-induced foot tapping after 24 hr. The conditions noted are these: in vivo. Type of series: organism-based.
Series [8] in a line: Half life in dog. Type of series: ADME, organism-based, Canis lupus familiaris. The note with it: in vivo.
For series [9], the system named is Gerbillinae. In words: Toxicity in iv dosed gerbil assessed as inhibition of GR-73632-induced foot tapping at 3 mg/kg, iv after 24 hrs. In kind it is organism-based. The arrangement: dose 3 mg/kg, route intravenous.
For series [10], the system named is Gerbillinae. The experiment in a line: (§1) Toxicity in iv dosed gerbil assessed as inhibition of GR-73632-induced foot tapping after 1 hr. The note with it: in vivo. Type of series: organism-based.
For the next series, the target named is Cytochrome P450 2D6 (Homo sapiens, UniProt P10635). The experiment in a line: Inhibition of CYP2D6. Type of series: ADME.
The next series concerns the target Cytochrome P450 2C9 (Homo sapiens, UniProt P11712). In words: Inhibition of CYP2C9. In kind it is ADME.
The target in series [11] is T2, Nuclear receptor subfamily 1 group I member 2 (Homo sapiens, UniProt O75469).
T2 sequence (O75469 whole entry): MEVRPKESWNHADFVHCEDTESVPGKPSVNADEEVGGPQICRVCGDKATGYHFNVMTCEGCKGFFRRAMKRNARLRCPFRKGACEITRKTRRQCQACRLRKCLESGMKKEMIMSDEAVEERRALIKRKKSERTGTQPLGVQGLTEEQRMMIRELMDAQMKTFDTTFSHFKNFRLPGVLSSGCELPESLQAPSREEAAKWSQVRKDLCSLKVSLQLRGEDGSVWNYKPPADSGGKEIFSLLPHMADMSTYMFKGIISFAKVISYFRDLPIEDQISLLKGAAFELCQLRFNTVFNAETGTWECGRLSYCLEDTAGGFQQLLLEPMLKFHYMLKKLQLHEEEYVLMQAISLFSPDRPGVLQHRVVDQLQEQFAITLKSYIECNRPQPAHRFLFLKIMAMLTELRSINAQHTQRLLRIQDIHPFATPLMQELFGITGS
In words: Induction of human PXR.

Series [12] is described as follows: Half life in rat. In kind it is ADME, organism-based. The note with it: in vivo.
The target in another series is Cytochrome P450 3A4 (Homo sapiens, UniProt P08684). The experiment in a line: Inhibition of CYP3A4. In kind it is ADME.
Series [13] in a line: Volume of distribution in dog. The conditions noted are these: in vivo. Type of series: ADME, organism-based, Canis lupus familiaris.
Series [14] can be described thus: Oral bioavailability in rat. In kind it is ADME, organism-based. The conditions noted are these: in vivo.
Series [15] has as its system Gerbillinae. In words: Toxicity in iv dosed gerbil assessed as inhibition of GR-73632-induced foot tapping after 24 hrs. In kind it is organism-based. The note with it: in vivo.
For a further series, the species on record is Rattus norvegicus. The experiment in a line: Clearance in rat plasma. Type of series: ADME, organism-based. The conditions noted are these: in vivo.
Series [16] relates to Gerbillinae. The series is described as §1. Type of series: organism-based. The conditions noted are these: in vivo. This is another data set of the same source.

T1 sequence (P25103 whole entry): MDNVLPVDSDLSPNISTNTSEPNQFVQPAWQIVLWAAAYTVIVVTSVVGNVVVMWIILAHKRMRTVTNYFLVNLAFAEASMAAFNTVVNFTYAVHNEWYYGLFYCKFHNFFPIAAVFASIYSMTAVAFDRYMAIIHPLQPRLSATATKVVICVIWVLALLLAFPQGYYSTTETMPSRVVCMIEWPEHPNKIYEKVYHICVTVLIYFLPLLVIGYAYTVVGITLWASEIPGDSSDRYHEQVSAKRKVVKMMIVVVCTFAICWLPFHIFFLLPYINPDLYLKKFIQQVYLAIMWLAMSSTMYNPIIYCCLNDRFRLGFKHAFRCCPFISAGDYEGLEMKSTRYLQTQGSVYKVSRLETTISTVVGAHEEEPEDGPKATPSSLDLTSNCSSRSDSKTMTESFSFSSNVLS
Chain of Cytochrome P450 3A4 (P08684 whole entry): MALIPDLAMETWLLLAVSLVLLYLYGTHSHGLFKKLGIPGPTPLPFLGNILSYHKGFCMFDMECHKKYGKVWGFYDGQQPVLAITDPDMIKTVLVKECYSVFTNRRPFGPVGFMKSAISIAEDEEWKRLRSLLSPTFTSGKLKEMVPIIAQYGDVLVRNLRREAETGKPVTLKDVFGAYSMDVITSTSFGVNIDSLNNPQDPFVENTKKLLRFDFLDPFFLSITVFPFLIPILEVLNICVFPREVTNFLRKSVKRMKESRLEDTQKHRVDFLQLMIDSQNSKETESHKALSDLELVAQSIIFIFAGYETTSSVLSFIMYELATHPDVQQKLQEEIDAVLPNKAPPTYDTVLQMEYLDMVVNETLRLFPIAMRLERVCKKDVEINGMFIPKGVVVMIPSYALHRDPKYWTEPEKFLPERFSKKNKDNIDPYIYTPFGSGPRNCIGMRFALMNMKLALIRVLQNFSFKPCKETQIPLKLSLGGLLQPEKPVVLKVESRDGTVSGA
Chain of Cytochrome P450 2C9 (P11712 whole entry): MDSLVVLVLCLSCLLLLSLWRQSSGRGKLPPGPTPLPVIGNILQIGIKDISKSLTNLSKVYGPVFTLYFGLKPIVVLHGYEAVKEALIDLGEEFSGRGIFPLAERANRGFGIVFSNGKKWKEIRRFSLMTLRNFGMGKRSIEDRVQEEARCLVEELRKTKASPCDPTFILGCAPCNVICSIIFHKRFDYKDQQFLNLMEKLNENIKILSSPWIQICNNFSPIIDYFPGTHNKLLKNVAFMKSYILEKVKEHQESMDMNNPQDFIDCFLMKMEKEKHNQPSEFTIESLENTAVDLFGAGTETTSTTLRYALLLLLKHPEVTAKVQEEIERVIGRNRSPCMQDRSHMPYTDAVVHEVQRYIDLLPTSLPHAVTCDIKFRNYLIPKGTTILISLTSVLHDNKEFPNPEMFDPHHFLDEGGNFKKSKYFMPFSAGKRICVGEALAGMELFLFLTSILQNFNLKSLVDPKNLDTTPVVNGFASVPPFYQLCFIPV
Chain of Cytochrome P450 2D6 (P10635 whole entry): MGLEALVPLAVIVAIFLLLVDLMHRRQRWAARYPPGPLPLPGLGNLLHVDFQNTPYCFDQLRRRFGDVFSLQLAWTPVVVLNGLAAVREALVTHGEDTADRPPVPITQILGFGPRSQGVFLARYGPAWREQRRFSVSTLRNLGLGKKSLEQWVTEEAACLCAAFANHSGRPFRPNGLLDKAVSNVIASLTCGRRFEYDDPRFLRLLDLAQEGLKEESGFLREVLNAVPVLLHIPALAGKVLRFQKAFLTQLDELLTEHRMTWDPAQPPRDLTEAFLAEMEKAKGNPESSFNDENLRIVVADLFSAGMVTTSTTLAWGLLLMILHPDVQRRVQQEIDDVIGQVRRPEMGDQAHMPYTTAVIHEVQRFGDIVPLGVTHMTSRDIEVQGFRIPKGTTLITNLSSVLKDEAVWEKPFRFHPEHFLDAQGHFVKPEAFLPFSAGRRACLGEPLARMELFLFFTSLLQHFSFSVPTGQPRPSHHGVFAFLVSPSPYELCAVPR

The IC50 is the concentration that inhibits the measured activity by half. As for `C[C@@H](O[C@H]1CN2C(=O)C=C(C3COC(=O)C3)CC2[C@@H]1c1ccc(F)cc1)c1cc(C(F)(F)F)cc(C(F)(F)F)c1` (some centres undefined) [listing 1 of 2 here], the “inhibition (INH)” value in the series with Gerbillinae [1] (gerbillinae, in vivo, 1 mg/kg) is 98%. The IC50 at Substance-P receptor [2] is 0.066 nM; at Substance-P receptor [3], 1.4 nM.

As usually defined, the bioavailability is the share of a dose that reaches the circulation, judged against a reference dose that is usually intravenous. Read a high bioavailability as much systemic uptake. A word on the Vd: it is a proportionality between amount in the body and measured concentration, not a real space. Usually half-life stands for how long it takes for the measured level to halve. A high value points to slow decline. By inhibition is commonly meant the share of the control response that was lost under treatment. By clearance is commonly meant the rate of elimination divided by the concentration. High values mean a high capacity for elimination, low ones a low capacity for elimination. With `C[C@@H](O[C@H]1CN2C(=O)C=C(C3=CCN(C(C)(C)C)CC3)CC2[C@@H]1c1ccc(F)cc1)c1cc(C(F)(F)F)cc(C(F)(F)F)c1` (some centres undefined), the bioavailability in series [4] is 44%; in [14], 5.3%. Moreover, the Vd in [5] was determined as 7.2 L/kg; in series [13] it was 11 L/kg. For the same compound, the IP at Substance-P receptor [6] turned out to be 2%. In addition, the ID50 in the series on Gerbillinae [7] amounted to 0.49 mg/kg; with Gerbillinae [10], 0.05 mg/kg; in the series with Gerbillinae [15] it was 0.49 mg/kg; in the series on Gerbillinae [16], 0.05 mg/kg. Moreover, the half-life in series [8] is 8.8 h; in [12], 2.8 h. Also, the IC50 on Substance-P receptor [2] is 0.18 nM; against Cytochrome P450 2D6 it was 35700 nM; on Cytochrome P450 2C9 it was 36500 nM; in series [11], more than 30000 nM; on Cytochrome P450 3A4, more than 50000 nM; at Substance-P receptor [3], 1.9 nM. Besides, in the series with Gerbillinae [9], the inhibition at 3 mg/kg was found to be 100%. In the series filed under Rattus norvegicus, this compound showed a clearance of 33 mL/min/kg.

Take `C[C@@H](O[C@H]1CN2C(=O)C=C(C3CCOCC3)CC2[C@@H]1c1ccc(F)cc1)c1cc(C(F)(F)F)cc(C(F)(F)F)c1` (some centres undefined): at Substance-P receptor [6], the IP was found to be 3%. Besides, the inhibition at 1 mg/kg in the series on Gerbillinae [1] was found to be 100%. The figures for the IC50 on Substance-P receptor [2] and at Substance-P receptor [3] were 0.09 nM and 3.2 nM, respectively.

`C[C@@H](O[C@H]1CN2C(=O)C=C(C3COC(=O)C3)CC2[C@@H]1c1ccc(F)cc1)c1cc(C(F)(F)F)cc(C(F)(F)F)c1` (some centres undefined) [listing 2 of 2 here]: the inhibition at 1 mg/kg in the series with Gerbillinae [1] came out at 96%. Moreover, the results for the IC50 at Substance-P receptor [2] and on Substance-P receptor [3] were 0.11 nM and 2.4 nM, respectively.
